Assay results: patent publication US8410168B2, “Methods and compositions for treating ophthalmic conditions with retinyl derivatives” (Acucela, Inc., priority 2004, dated 2013)
“Also recorded” adds a separate entry of the source.

How the values were obtained:
abcr null mutant mice = assay: Lipofuscin autofluorescence in RPE and light microscopy of retina; type: in vivo, mouse; details: 28 days of HPR
Method: Treatment conditions are as described above.
HPR (10 mg/kg in DMSO) was administered to ABCA4−/− mice daily for a period of 28 days. Control ABCA4−/− mice received only DMSO for the same period. […] Importantly, the observed reductions in lipofuscin autofluorescence persist long after cessation of HPR therapy. HPR (10 mg/kg), or DMSO, administration was discontinued following 28 days of treatment and re-evaluated A2E and precursor levels after 2 weeks and after 4 weeks.

abca4 null mutant mice = assay: A2PE-H2 and A2E as a function of HPR dose, 28 days; type: in vivo, mouse; details: HPR daily for 28 days, several doses
Method: Group averages from the data shown in panels A-G of FIG. 18 in Example 25 (28 day time points) are plotted to illustrate the strong correlation between increases in serum HPR and decreases in serum retinol (see FIG. 12). Reductions in serum retinol are highly correlated with reductions in A2E and precursor compounds (A2PE-H2). A pronounced reduction in A2PE-H2 in the 2.5 mg/kg dosage group (˜47%) is observed when the serum retinol reduction is only 20%. The reason for this disproportionate reduction is related to the inherently lower ocular retinoid content in this group of 2-month old animals compared to the other groups. It is likely that if these animals had been maintained on the 2.5 mg/kg dose for a more prolonged period, a greater reduction in A2E would also be realized.
ABCA4 null mutant mice were given the indicated dose of HPR in DMSO or DMSO alone daily for 28 days (n=16 mice per treatment group). At study onset, mice in the 2.5 mg/kg group were 2 months of age, mice in the other treatment groups were 3 months of age. At the indicated times, representative mice were taken from each group (n=4) for analysis of A2E precursor compounds (see FIG. 18, A2PE-H2, panels A, C and E) and A2E (see FIG. 18, panels B, D and F). […] Sample extracts were analyzed by LC. […]

LRAT = target: T1, LRAT (Homo sapiens, UniProt O95237); details: cited from earlier work
T1 construct: host or cells: membranes from liver and small intestine
T1 sequence (O95237 1-230): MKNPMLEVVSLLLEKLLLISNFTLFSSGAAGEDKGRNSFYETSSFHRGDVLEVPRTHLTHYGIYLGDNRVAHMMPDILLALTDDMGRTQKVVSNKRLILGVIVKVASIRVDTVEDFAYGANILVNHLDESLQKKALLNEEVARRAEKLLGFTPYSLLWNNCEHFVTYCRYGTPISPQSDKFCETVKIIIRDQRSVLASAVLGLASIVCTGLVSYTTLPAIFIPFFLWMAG

CRALBP [1] = target: T2, CRALBP (Homo sapiens, UniProt P12271); assay: Fluorescence quenching study of binding to CRALBP
T2 construct: made in house
T2 sequence (P12271 whole entry, species assumed): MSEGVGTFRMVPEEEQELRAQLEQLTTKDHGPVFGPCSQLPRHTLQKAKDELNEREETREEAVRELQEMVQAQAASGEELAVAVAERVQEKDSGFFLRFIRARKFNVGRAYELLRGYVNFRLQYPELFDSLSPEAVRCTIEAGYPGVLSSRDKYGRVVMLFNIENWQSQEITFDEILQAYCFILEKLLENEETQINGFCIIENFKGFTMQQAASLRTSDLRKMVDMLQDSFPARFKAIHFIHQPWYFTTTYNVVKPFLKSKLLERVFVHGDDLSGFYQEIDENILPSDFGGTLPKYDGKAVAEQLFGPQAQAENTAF
Method: Apo-CRALBP at 0.5 μM was incubated with 1 μM of 11-cis Retinal (11cRAL), all-trans retinal (atRAL) or N-4-hydroxyphenyl retinamide (HPR) in PBS at room temperature for 1 hour. As a control, same volume of DMSO was added to the Apo-CRABLP solution. The emission spectra were measured between 290 nm to 500 nm with excitation wavelength at 280 nm and 2 nm bandpass (See FIG. 7).
Quenching of CRALBP protein fluorescence with 11-cis retinal (11cRAL). The fluorescence emission of recombinant apo-CRALBP (0.5 μM) was measured using 280 nm excitation (“no 11cRAL”).
Quenching of CRALBP protein fluorescence with HPR. The data shown were obtained using an experimental design identical to that described above. The fluorescence emission of recombinant apo-CRALBP was measured using 280 nm excitation (“no HPR”).
We performed an analysis of the dissociation constant (KD) for 11cRAL and HPR binding to apo-CRALBP (see FIG. 15). […] This calculation is based upon the ligand concentration necessary to fully quench the protein fluorescence. The data reveal that both 11cRAL and HPR quench apo-CRALBP fluorescence maximally at ˜1.5 μM. Thus, although apo-CRALBP is described as an 11 cis-specific retinoid binding protein, it appears to bind HPR as well.

CRALBP [2] = target: T2, CRALBP; assay: Size exclusion chromatography study of binding to CRALBP; details: 4 μM apo-CRALBP, 8 μM ligand
Method: Apo-CRALBP at 4 μM was incubated with 8 μM of 11cRAL, atRAL or HPR in PBS at room temperature for 1 hour. In control experiment, equivalent volume of DMSO was added to the CRALBP solution. 50 μl of each sample mixture was analyzed by BioRad Bio-Sil SEC125 Gel Filtration Column (300×7.8 mm).

## CC1=C(/C=C/C(C)=C/C=C/C(C)=C/C(=O)Nc2ccc(O)cc2)C(C)(C)CCC1 [HPR, N-(4-hydroxyphenyl)retinamide]
Abcr null mutant mice
  lipofuscin autofluorescence in the RPE: significantly reduces; also recorded: comparable to levels observed in untreated wild type mice
  retinal morphology by light microscopy: No aberrant morphology or compromise of the integrity in retinal cytostructure was observed; also recorded: no alteration of retina cytostructure or morphology
abca4 null mutant mice
  A2PE-H2 and A2E during the study period: dose-dependent reductions
LRAT
  LRAT activity in membranes prepared from liver and small intestine: marked inhibition
CRALBP [1]
  concentration of maximal quenching of apo-CRALBP fluorescence: ~1.5 µM
CRALBP [1]; 0.5 μM apo-CRALBP, 1 μM ligand, 1 hour, vs DMSO
  quenching of CRALBP fluorescence emission: lowest
CRALBP [1]; 0.5 μM recombinant apo-CRALBP, 280 nm excitation
  concentration dependence of CRALBP protein fluorescence quenching: concentration dependent manner
CRALBP [1]; transformation of fluorescence quenching data, read-out: dissociation constant (KD) for binding to apo-CRALBP
  Kd: ~30 nM
CRALBP [2]
  ligand bound to CRALBP (monomer elution peak absorbance): only small amount of HPR is bound to CRALBP
